The target in data set [1] is T1, GST-CIB1 : F-scrambled peptide (Homo sapiens, UniProt Q99828).
T1 construct: made in house; host or cells: BL-21 plus RIL cells (E. coli)
T1 sequence (Q99828 1-191): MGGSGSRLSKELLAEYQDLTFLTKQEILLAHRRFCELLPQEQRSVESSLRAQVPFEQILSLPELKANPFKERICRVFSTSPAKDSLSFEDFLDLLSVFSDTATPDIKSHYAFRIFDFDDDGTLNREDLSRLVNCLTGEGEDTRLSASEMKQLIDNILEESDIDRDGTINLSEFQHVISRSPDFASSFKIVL
Kind of data set: FP scrambled-peptide counter screen, 384-well format. The note with it: F-scrambled peptide. The class given is binding.

The nature of data set [2]: In vitro ADME: PAMPA permeability.
In a further data set the target is T2, CIB1-(His)6 (Homo sapiens, UniProt Q99828).
T2 construct: made in house
T2 sequence (Q99828 1-191): T1 sequence (Q99828 1-191)
Kind of data set: Microscale thermophoresis (MST) protein and small-molecule binding. The note with it: MST; fluorescently labeled CIB1-(His)6 50 nM; read-out: equilibrium dissociation constant (Kd). The method, then: Determining a direct measurement of a molecule’s binding interaction with its target is a vital parameter for characterizing a chemical probe. We employed microscale thermophoresis (MST) for this purpose, leveraging its sensitivity and capacity to deliver quantitative data on the binding interaction.[35] […] We began by testing increasing amounts of the compound(s) and incubating them with the fluorescently labeled CIB1-(His)6, followed by the detection of the MST traces on the NT automated instrument (for more details see Materials and Methods Section). […] We were able to rule out compound interference with the histidine tag on CIB1 and/or the fluorophore used for the MST assay by testing the compounds with a fluorescently labeled hexa-histidine peptide (Figure S8B).
The binding affinity of the compounds to the CIB1-(His)6 protein was evaluated using microscale thermophoresis (MST). The recombinant protein was labeled with a fluorophore using Monolith His-tag labeling RED-tris-NTA second Generation kit (Nanotemper Technologies, Munich, Germany) following the manufacturer’s protocol. Compounds were titrated in a 2-fold dilution series (16 points, final concentration range of 6.1 nM to 200 μM) and incubated with the same volume of 50 nM (final concentration; 25 nM RED-tris-NTA) labeled recombinant protein for 30 min at RT (20 μL final assay volume). […] The dissociation constant (Kd) values were calculated by fitting the thermophoresis signal at 20 s of the thermograph using the MO Affinity Analysis software (Nanotemper Technologies, Munich, Germany) and confirmed using GraphPad Prism.

The next data set addresses T3, CIB1 and αIIb peptide (Homo sapiens, UniProt Q99828).
T3 sequence (Q99828 1-191): T1 sequence (Q99828 1-191)
Kind of data set: Intrinsic tryptophan fluorescence (ITF) assay.

In data set [3] the target is T4, CIB1 and αIIb interaction (GST-CIB1 : F-αIIb peptide) (Homo sapiens, UniProt Q99828).
T4 construct: made in house; host or cells: BL-21 plus RIL cells (E. coli)
T4 sequence (Q99828 1-191): T1 sequence (Q99828 1-191)
Kind of data set: FP assay, 384-well format (screen). Details: 384-well SCREEN Efficacy (%): concentration or dose not given beside the values. The class given is binding.

Data set [4] can be described thus: In vitro ADME: RLM stability. The note with it: rat liver microsomes; read-out: Rat Liver Microsome Stability (t1/2). A general note: Microsomes from liver hold many membrane-bound enzymes, among them those of drug oxidation.
For data set [5], the target named is T5, CIB1-(His)6 : F-αIIb peptide (Homo sapiens, UniProt Q99828).
T5 construct: made in house
T5 sequence (Q99828 1-191): T1 sequence (Q99828 1-191)
Kind of data set: MST competitive binding study. The settings on record: 200 nM F-αIIb, 4 μM CIB1-(His)6; n = 3/concentration. The method, then: We sought to resolve this discrepancy by performing a competition binding study similar to the conditions of the FP HTS assay by utilizing the F-αIIb probe.
Figure 4 MST competitive binding assay. We selected 200 nM F-αIIb and a CIB1 concentration of 4 μM and tested both compounds. […] Panel (B) highlights the concentration range in which we observe different activities between the two compounds.
The binding affinity of the compounds to the CIB1-(His)6 protein in the presence of αIIb peptide was evaluated using FITC-labeled αIIb as well. Following manufacturer’s recommendation,[66] we first determined a minimum concentration of F-αIIb by performing a titration of the fluorophore (1 μM, 1:2, 8-points; final concentration range of 7.8 nM to 1 μM) in a 10 μL assay volume. Solutions were placed in standard capillaries and evaluated for the fluorescent signal using the Monolith NT.115 instrument. […] CIB1-(His)6 protein was titrated in a 2-fold dilution series (16-points, final concentration range of 15 nM to 500 μM), at a final volume of 12.5 μL. An equal volume of [2×] […] Solutions were placed in standard capillaries, incubated for approximately 1 h, and evaluated for a fluorescent signal with 50% LED excitation power, 20, 40, or 60% MST power (low, medium, high, respectively), MST on-time of 30 s, and off-time of 5 s.
Compounds were titrated in a 2-fold dilution series (16 points, final concentration range of 6.1 nM to 200 μM) and mixed with an equal volume CIB1-(His)6 protein and F-αIIb peptide (final concentrations of 4 μM and 200 nM, respectively). Solutions were incubated for 1 h at RT, then placed in standard capillaries, and evaluated for fluorescent signal (in triplicate) at the following parameters: 50% LED excitation power, 40% MST power, MST on-time of 30 s, and off-time of 5 s using Monolith NT.115 instrument. Dissociation constant (Kd) values were calculated by fitting the thermophoresis signal at 20 s of the thermograph using the MO Affinity Analysis software (Nanotemper Technologies, Munich, Germany) and confirmed using Graphpad Prism 7.

Where two headings read alike, the source gives them in different places.

For the molecule `COc1ccccc1C(=O)c1no[n+]([O-])c1C(=O)c1ccccc1OC.O=C(O)C(F)(F)F` [NCGC00351170-01], the “384-well COUNTERSCREEN Efficacy (%)” value in data set [1] amounted to 34%. In data set [1] (*: Curve in opposite direction), the “384-well COUNTERSCREEN Confirm?” value is “Inconclusive”. Moreover, the IC50 in data set [1] (read-out: 384-well COUNTERSCREEN IC50) is 8.9 µM; against CIB1 and αIIb peptide it was 15.6 µM; in data set [3] (384-well FP assay, Table 1, read-out: FP assay IC50), 4.19 µM; in data set [3] (F-αIIb peptide, read-out: 384-well SCREEN IC50), 7.9 µM; in data set [3] (quoted in text for comparison with MST EC50, read-out: potency in the 384-well FP assays), around 4 µM. Moreover, in data set [2], the Papp – broadly, the rate of passage across a membrane or cell layer, normalised by area and donor concentration – was 1020 nm/s. Besides, at CIB1-(His)6, the Kd (in general, a measure of binding affinity in units of concentration) amounted to 2.9 µM. The “384-well SCREEN Efficacy (%)” value in data set [3] (F-αIIb peptide) turned out to be 57%. In addition, the “384-well SCREEN Confirm?” value in data set [3] (F-αIIb peptide, YES/NO) is given as “YES”. For the same molecule, the “Confirm and Selective?” value in data set [3] (selective toward αIIb: negative curve class and/or IC50 ratio of >3-fold and/or >2-fold efficacy vs scrambled peptide) is “Inconclusive”. In data set [4], the half-life was 1.52 min. A half-maximal effect in data set [5] (EC50) was put at 2.1 µM.

Values taken from PMC11249646, “Small-Molecule Disruptors of the Interaction between Calcium- and Integrin-Binding Protein 1 and Integrin αIIbβ3 as Novel Antiplatelet Agents” (ACS Pharmacology & Translational Science, 2024).
